Where two headings read alike, the source gives them in different places.
Tests used:
Huntington's Chorea = details: one patient, two vials intramuscularly 100 mg/ml per week, two months
Description: We evaluated and treated one single patient. The disease is genetic and it has dominant transmission. The diagnosis was made in primary neurological centres based upon anamnestic, clinical and laboratory data. […] The first symptoms appeared about six years ago.
The patient, 56 years […], was evaluated with Unified Huntington's Disease Rating Scale (UHDRS). The scale consists of 31 items and ranges from 0 scores (absence of choreic motions) to 124 scores (maximum intensity and extension on the body of the involuntary motions of choreic type).
The first evaluation, before treatment was performed on Jun. 7, 2016, the second one, after two months of treatment with two vials intramuscularly 100 mg/ml per week was performed on Sep. 9, 2016.

Dystonia 1 (DYT1) = details: for Fahn-Mardsen motion scale after treatment: scale 0-120; for Fahn-Mardsen disability scale after treatment: scale 0-30
Description: The studied patients were two, a person and a person, parent and child. The disease is genetic and has a transmission of dominant type. The diagnosis was made in primary neurological centres based upon anamnestic, clinical and laboratory data.
They were evaluated with Fahn-Mardsen scale of dystonia (Fahn-Mardsen Rating Scale). This scale consists of two sub-scales: 1) motion scale 2) disability scale. The first one ranges from 0 (no motion disorder) to 120 (maximum intensity and extension of the motion dystonic disorder). The second one ranges from 0 (no disability) to 30 (maximum disability)

Migraine Headache = details: for MIDAS after treatment: after 30 days, scale 0-25
Description: Migraine headache is the headache form characterized by a recurrent pain involving one only side of the head. The pulsating headache can last from four hours until three days and it is accompanied by nausea, vomiting, photophobia. The causes are poorly known. We studied two female patients starting from January 2017.
The patients were evaluated with Migraine Disability Assessment Test (MIDAS) evaluation scale before starting the treatment and every 30 days after starting the treatment, which started in January 2017. The score of this scale ranges from 0 (absence of symptoms) to 25 (maximum disability, maximum negative influence in the daily life activities).
The thiamine dose was 300 mg orally each morning.
The thiamine dose was 500 mg every morning orally.

[1] = patient P1, two months of treatment
[2] = patient P2, two months of treatment
[3] = patient P2, two months of treatment, before treatment 4

Cc1ncc(C[n+]2csc(CCO)c2C)c(N)n1 [vitamin B1, thiamine]
improvement of UHDRS (Huntington's Chorea): 27.5% | UHDRS after treatment (Huntington's Chorea; before treatment 62, scale 0-124): 45 scores | improvement of disability scale (Dystonia 1 (DYT1); [1]): 35.8% | improvement of motion scale (Dystonia 1 (DYT1); [1]): 53.0% | Fahn-Mardsen motion scale after treatment (Dystonia 1 (DYT1); patient P1, two months of treatment (dose not given), before treatment 66): 31 scores | Fahn-Mardsen disability scale after treatment (Dystonia 1 (DYT1); patient P1, two months of treatment, before treatment 14): 9 scores | improvement of disability scale (Dystonia 1 (DYT1); [2]): 50.0% | improvement of motion scale (Dystonia 1 (DYT1); [2]): 50.0% | Fahn-Mardsen disability scale after treatment (Dystonia 1 (DYT1); [3]): 2 scores | Fahn-Mardsen motion scale after treatment (Dystonia 1 (DYT1); [3]): 2 scores | days of treatment after which the regression of the episodes was already present (Migraine Headache; migraine patients on oral thiamine, maintained by continuing the same treatment): 7 days | MIDAS after treatment (Migraine Headache; patient N1, 300 mg orally each morning, before treatment 19): 0 scores | MIDAS after treatment (Migraine Headache; patient N2 (person ten), 500 mg every morning orally, before treatment 20): 0 scores

From patent US20200281928A1, “VITAMIN B1 IN HIGH DOSES FOR USE IN THE MEDICAL TREATMENT OF MOTOR SYMPTOMS OF SOME SPORADIC NEURODEGENERATIVE DISEASES, OF GENETIC ORIGIN, AND OF CLUSTER HEADACHE AND OF MIGRAINE HEADACHE” (priority 2017, published 2020)
